The results in this text go back to patent US7176222B2, “Syntheses of ureas” (Cytokinetics, Inc., priority 2004, dated 2007).

Each structure is given as a SMILES string.

What is called melting point is the temperature, or range, at which the solid turns liquid. `CC(=O)N1CCC[C@@H](Oc2cc(F)cc(NC(=O)Nc3cccnc3)c2)C1` [Example 1, (R)-1-[3-(1-Acetyl-piperidin-3-yloxy)-5-fluoro-phenyl]-3-pyridin-3-yl-urea] yielded a melting point of 145 °C.
